Measured values reported in patent US11612586B2, “Indole regulation of antigen presenting cells” (THE TEXAS A&M UNIVERSITY SYSTEM, priority 2016, dated 2023).
“Also recorded” adds a separate entry of the source.

Key:
[1] = system: Salmonella Typhimurium; experiment: Salmonella invasion of HeLa epithelial cells (Salmonella exposed to indole); assay type: cell-based
[2] = system: Salmonella Pathogenicity Island-1 (SPI-1) genes; experiment: Expression of Salmonella Pathogenicity Island-1 genes; assay type: cell-based, Salmonella Typhimurium
[3] = system: IL-10; experiment: IL-10 production by BMDC cultures (ELISA); assay type: cell-based, mouse; conditions: indole-conditioned DCs
Method: To determine whether this was a specific downregulation of pro-inflammatory cytokines, production of the canonical DC-produced anti-inflammatory cytokines, IL-10 and TGF-β, was also examined.
Cytokine concentration in the supernatant of BMDC cultures was assessed using commercially available ELISA kits for IL-10 (Peprotech) and TGF-β (eBioscience) per the manufacturer's instructions.

[4] = system: CCR7; experiment: CCR7 surface expression on BMDCs; assay type: cell-based, mouse
Method: FIG. 14 graphically illustrates that indole upregulates CCR7 expression in DCs. Flow cytometric analysis were performed on BMDCs cultured from day 3 in the presence of indole (1 mM), RA (1 uM), or DMF control and either surface stained for CCR7 expression directly or treated with LPS (1 ug/ml) for 24 hours prior to CCR7 staining.
Encountering maturation-inducing stimuli induces an upregulation of the chemokine receptor CCR7 in DCs. This shift promotes DC migration from peripheral tissues to the lymph nodes to present captured antigen. CCR7 expression facilitates this migration by rendering DCs sensitive to the chemoattractants, CCL19 and CCL21, which direct DCs to T cell areas of lymphoid tissues. […] Exposure to LPS is a DC-activating signal known to upregulate CCR7 expression in order to prime DCs for lymph node entry. Consistent with the literature, exposure to LPS for 24 hours further induced CCR7 expression in our BMDC cultures overall. Here, indole-conditioned DCs once again expressed a higher level of CCR7 expression compared to controls by over 3-fold in magnitude (FIG. 14).

[5] = system: CCR9; experiment: CCR9 induction on naïve T cells by conditioned DCs; assay type: cell-based, mouse
Method: FIG. 18 graphically illustrates that indole-conditioned DCs induce CCR9 on naïve T cells upon activation. Naïve CD4+CD25− T cells from OT-II mice were co-cultured with OVA323-339 peptide-loaded BMDCs for 72 hours in the presence of RA as indicated. BMDCs were previously treated with indole, RA, or DMF from day 3. Following 3 days of co-culture, surface staining was performed for flow cytometric analysis.
Based on the observation that indole induces gut homing markers on developing DCs, it was queried whether indole-conditioned DCs could also confer gut homing markers upon naïve CD4+ T cells. The antigen-specific T cell activation model was used to address this question, and a titration of RA was included as a positive control to induce CCR9. […] Just 10 nM of RA enabled indole-DC co-cultures to achieve over 50% of T cells expressing CCR9 which was similar to RA-DC positive controls, whereas DMF-DC co-cultures with the same concentration of RA added achieved only 10% of CCR9+ T cells.
Naïve CD4+CD25− T cells of spleen and lymph nodes from OT-II mice were isolated by negative selection via column purification using the Naïve CD4+ T Cell Isolation Kit (Miltenyi Biotec). Naïve CD4+ T cells (>96% pure) were labeled with Cell Proliferation Dye efluor450 (eBioscience) following manufacturer's instructions then co-cultured with OVA peptide-loaded BMDCs at a ratio of 2:1 for 72 hours in a 96-well round-bottom tissue culture plate. BMDCs were previously treated with indole or RA from day 3. On day 7, DCs were washed extensively prior to being loaded with OVA323-339 peptide (10 ug/ml) for 1 hour at 37° C. BMDCs were then washed three times and plated with naïve CD4+ T cells. RA or TGFβ were added to co-cultures as indicated. Following 3 days of culture, cells were stained with antibodies to CD4, CCR9, and LPAM-1 (α4β7). Intracellular staining for Foxp3 was performed using a Foxp3 staining kit (eBioscience). The remaining CD4+ helper T cell lineages Th1, Th2, and Th17 were identified by their cytokine production. […]

[6] = system: Th17 cells; experiment: Th17 differentiation in DC-T cell co-culture; assay type: cell-based, mouse; conditions: co-culture with DCs conditioned with indole, Th17-skewing cytokines present
Method: FIGS. 19A-19C graphically illustrate that indole-conditioned DCs inhibit Th1, Th2, and Th17 differentiation. Naïve CD4+CD25-T cells from OT-II TCR transgenic mice were isolated by column purification. Naïve T cells were then co-cultured with OVA323-339 peptide-loaded BMDCs for 72 hours in the presence or absence of lineage-skewing cytokines (described in methods). BMDCs were previously treated with indole, RA, or DMF from day 3. For the last 5 hours of culture, T cells were restimulated with PMA and ionomycin in the presence of Golgiplug, followed by intracellular staining. Cytokine production was determined to assess differentiation of Th1 (FIG. 19A), Th2 (FIG. 19B), and Th17 CD4+T (FIG. 19C) cells. Mean of three independent experiments. * indicates p<0.05 for one-way ANOVA followed by Dunnett's post-test.
In order to determine whether the indole-conditioned DC induction of Tregs was specific to this lineage, additional T cell fates were quieried. Activated CD4+T helper cells are typically divided into the subsets Th1, Th2, Th17, and Treg, based on their expression of transcription factors and pattern of cytokine secretion. The antigen-specific co-culture system was used to investigate these remaining traditional T cell lineages with the addition of an endpoint PMA/Ionomycin stimulation to induce cytokine secretion. […]

[7] = system: DCs; experiment: Antigen-uptake assay in DCs; conditions: FITC-labeled OVA particles
[8] = system: reactive oxygen species (ROS); experiment: Reactive oxygen species production in DC2.4 and BMDC

c1ccc2[nH]ccc2c1 [Indole, indole]
decrease of Salmonella invasion of HeLa epithelial cells [1]: 160 fold | expression of four SPI-1 genes involved in invasion [2]: decrease in expression | effect of short chain fatty acids on attenuation of SPI-1 gene expression ([2]; indole together with short chain fatty acids): synergistically enhanced | IL-10 production [3]: Neither IL-10 nor TGF-β production were affected | CCR7 expression compared to controls ([4]; BMDCs, indole 1 mM from day 3, LPS for 24 hours): over 3 fold | increase in CCR7 expression over RA or solvent controls ([4]; day 7 freshly harvested BMDCs, indole 1 mM from day 3): approximately 5 fold | T cells expressing CCR9 ([5]; co-culture with DCs conditioned with indole, 10 nM of RA added): over 50% | induction of CCR9 on naïve T cells by conditioned BMDCs alone ([5]; no exogenous RA in the co-culture): insufficient; also recorded: did not induce CCR9 | Th17 differentiation, rate of T cells [6]: less than 0.5% | particle uptake by DCs [7]: did not alter particle uptake | secretion of reactive oxygen species (ROS) [8]: intact
